Data published in patent US11034717B2, “Farnesoid X receptor modulators” (Intercept Pharmaceuticals, Inc., priority 2015, dated 2021).
Like-named read-outs stand apart in the source and are kept apart here. One block for each compound: values may come before it.

Key:
hTGR5 [1] = target: T1, hTGR5 (Homo sapiens (Human), UniProt Q8TDU6); assay: HTR-FRET intracellular cAMP assay in NCI-H716 cells; assay type: cell-based; settings: Table 1; Ref LCA
[2] = Critical micellar concentration; assay type: physicochemical; settings: determined in […] NaCl water solution
Protocol: (§1) Physiochemical properties of a compound of the invention such as water solubility, critical micellar concentration, surface tension, and LogPA were determined using methods known in the art.

[3] = 1-octanol-water partition coefficient of ionized species; assay type: physicochemical
Protocol: as §1

hERG potassium channel = hERG potassium channel (Homo sapiens (Human), UniProt Q12809); assay: biochemical; settings: for hERG potassium channel inhibition (in words): Table 7 footnote
Sequence of hERG potassium channel (Q12809 whole entry): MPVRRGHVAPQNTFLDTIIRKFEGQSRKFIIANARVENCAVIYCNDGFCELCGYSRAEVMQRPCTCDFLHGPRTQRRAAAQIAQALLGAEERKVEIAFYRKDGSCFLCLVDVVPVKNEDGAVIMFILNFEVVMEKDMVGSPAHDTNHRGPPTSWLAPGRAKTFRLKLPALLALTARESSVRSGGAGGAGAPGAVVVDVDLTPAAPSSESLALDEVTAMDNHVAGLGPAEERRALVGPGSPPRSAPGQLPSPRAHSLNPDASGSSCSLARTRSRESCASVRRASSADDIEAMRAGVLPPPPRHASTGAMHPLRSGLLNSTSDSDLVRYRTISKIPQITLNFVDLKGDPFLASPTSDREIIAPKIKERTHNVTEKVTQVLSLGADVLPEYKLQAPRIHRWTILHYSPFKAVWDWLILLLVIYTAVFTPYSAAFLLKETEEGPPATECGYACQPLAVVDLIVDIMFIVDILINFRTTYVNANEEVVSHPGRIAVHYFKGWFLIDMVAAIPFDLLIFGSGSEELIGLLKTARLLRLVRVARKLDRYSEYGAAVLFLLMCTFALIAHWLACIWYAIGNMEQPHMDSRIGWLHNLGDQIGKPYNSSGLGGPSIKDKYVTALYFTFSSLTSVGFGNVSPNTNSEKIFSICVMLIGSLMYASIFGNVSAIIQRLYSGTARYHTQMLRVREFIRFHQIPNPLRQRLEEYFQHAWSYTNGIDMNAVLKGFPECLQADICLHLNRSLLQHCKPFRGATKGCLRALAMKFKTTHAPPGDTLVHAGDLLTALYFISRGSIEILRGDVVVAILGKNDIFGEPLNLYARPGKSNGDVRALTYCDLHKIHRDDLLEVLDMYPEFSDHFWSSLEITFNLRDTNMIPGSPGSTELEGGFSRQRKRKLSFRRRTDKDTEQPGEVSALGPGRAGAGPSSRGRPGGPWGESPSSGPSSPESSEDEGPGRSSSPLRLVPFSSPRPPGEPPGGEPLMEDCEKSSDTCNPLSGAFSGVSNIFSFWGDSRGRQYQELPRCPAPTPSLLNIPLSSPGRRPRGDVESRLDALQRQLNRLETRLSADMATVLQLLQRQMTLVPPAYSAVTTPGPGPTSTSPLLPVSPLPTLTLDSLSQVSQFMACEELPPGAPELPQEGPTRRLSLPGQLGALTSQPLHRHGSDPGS
Excerpt: The assay is based on the assumption that the hERG potassium channel activity contributes to the resting membrane potential in permanently transfected cells, and thus a block of hERG channels should result in a depolarization of the cell membrane. The assay is designed to identify potential hERG channel blockers by producing data that accurately correlates with patch-clamp electrophysiology studies.
Membrane preparations from Chinese hamster ovary cells stably transfected with hERG potassium channel are used to evaluate the potential inhibitory effect of a compound of the invention on this channel using the Predictor™ fluorescence polarization assay. Reduction of membrane polarization as a result of inhibition of the hERG potassium channel is directly correlated with a reduction of the fluorescence polarization (FP).
An assay window more than 100 mP (millipolarization) is considered good. The non-linear regression curves are obtained by GraphPad Prism (GraphPad Software Inc.) analysis, to calculate the IC50 values.

hTGR5 [4] = target: T1, hTGR5; assay: Cross species TGR5 activity, CHO cells, human; assay type: cell-based
rTGR5 = rTGR5 (Rattus norvegicus (Rat), UniProt Q80T02); assay: Cross species TGR5 activity, CHO cells, rat; assay type: cell-based
Sequence of rTGR5 (Q80T02 whole entry): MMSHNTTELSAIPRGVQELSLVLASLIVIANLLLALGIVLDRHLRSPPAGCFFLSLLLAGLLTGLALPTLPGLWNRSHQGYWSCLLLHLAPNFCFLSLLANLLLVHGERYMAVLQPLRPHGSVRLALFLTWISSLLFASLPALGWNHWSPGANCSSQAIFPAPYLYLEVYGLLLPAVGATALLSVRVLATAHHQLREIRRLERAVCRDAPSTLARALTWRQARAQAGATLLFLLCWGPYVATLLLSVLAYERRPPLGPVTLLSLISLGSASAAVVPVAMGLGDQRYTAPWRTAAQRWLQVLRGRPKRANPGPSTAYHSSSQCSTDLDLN

[5] = tested on: nuclear receptors LXRP, PXR, CAR, PPARα, PPARγ, RAR, RARα, VDR, TR, PR, RXR, GR, and ER; assay: Nuclear receptor selectivity profile (AlphaScreen); assay type: biochemical; settings: for Activation of nuclear receptor panel, agonist mode: dose response to 200 μM; for Activity on nuclear receptor panel, antagonist mode: fixed concentration at 10 μM
Protocol: Using the AlphaScreen assay, the selectivity of a compound of the invention against the following nuclear receptors involved in the metabolic pathways can be evaluated: LXRP, PXR, CAR, PPARα, PPARα, PPARγ, RAR, RARα, VDR, TR, PR, RXR, GR, and ER.
Compounds L1, 3, 5, 6 and 7 were tested against the panel of available nuclear receptor in both agonist and antagonist mode.

mTGR5 = mTGR5 (Mus musculus (Mouse), UniProt Q80SS6); assay: Cross species TGR5 activity, CHO cells, mouse; assay type: cell-based
Sequence of mTGR5 (Q80SS6 whole entry): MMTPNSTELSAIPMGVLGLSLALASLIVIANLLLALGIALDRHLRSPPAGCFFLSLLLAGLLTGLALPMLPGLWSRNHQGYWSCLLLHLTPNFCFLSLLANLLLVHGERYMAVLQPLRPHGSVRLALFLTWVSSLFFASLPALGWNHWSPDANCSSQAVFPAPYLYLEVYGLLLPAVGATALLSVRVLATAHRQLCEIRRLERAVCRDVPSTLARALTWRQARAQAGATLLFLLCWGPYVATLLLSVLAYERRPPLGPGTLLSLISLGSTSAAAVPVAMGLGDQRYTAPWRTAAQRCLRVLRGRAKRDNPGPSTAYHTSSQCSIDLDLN

dTGR5 = assay: Cross species TGR5 activity, CHO cells, dog; assay type: cell-based
HepG2 cells = assay: In-vitro cytotoxicity, ATP content; assay type: cell-based; settings: Table 5A
Excerpt: To evaluate in-vitro cytotoxicity of a compound of the invention, two different assay methods are employed. The assays evaluate cell viability by measuring ATP levels and cytotoxicity by measuring LDH release. […] It has been called the “molecular unit of currency” when it comes to intracellular energy transfer.
An additional method to determine the viability of cells is to detect the integrity of the membrane that defines the cellular compartmentalization. Measuring the leakage of components out of the cytoplasm, in damaged cell membranes, indicates loss of membrane integrity, and LDH release is the method used to determine common toxicity in cells. HepG2 cells are treated with a compound of the invention, and serial dilutions are performed. LCA dilutions are added to the plated cells as assay controls together with no-cell and untreated cells. The assay is performed in triplicate for each test compound concentration.

CYP2E1 = CYP2E1 (Homo sapiens (Human), UniProt P05181); assay: CYP450 inhibition, fluorescent substrate, recombinant baculosomes; assay type: in vitro ADME
Sequence of CYP2E1 (P05181 whole entry, canonical isoform): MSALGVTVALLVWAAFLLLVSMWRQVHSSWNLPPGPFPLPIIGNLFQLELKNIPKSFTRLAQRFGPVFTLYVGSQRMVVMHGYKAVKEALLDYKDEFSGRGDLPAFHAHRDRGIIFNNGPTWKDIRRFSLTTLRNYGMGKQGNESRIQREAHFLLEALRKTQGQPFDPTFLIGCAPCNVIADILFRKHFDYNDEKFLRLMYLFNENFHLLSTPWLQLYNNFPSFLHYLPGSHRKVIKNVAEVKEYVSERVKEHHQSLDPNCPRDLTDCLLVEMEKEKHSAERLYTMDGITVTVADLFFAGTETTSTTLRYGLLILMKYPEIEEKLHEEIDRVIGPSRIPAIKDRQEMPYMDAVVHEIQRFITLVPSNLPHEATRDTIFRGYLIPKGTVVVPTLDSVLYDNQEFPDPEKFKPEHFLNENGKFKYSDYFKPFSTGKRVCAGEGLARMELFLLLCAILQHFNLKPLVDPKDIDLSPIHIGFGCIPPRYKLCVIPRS
Protocol: (§2) To evaluate the potential of a compound of the invention for drug-drug interactions, the six main CYP450 isoforms (CYP1A2, CYP2C9, CYP2C19, CYP2D6, CYP2E1, CYP3A4) are investigated (Obach, et al., J Pharmacol. Exp. Ther, 2006, 316, 336-348).
(§3) To determine interaction between a compound of the invention and cytochrome P450 enzymes, the compound of the invention is analyzed by its capacity to inhibit (or not) the production of a fluorescent signal, using recombinant CYP450 proteins (baculosomes; Invitrogen), substrates and inhibitors (Bidstrup, et al., Br J Clin. Pharmacol, 2003, 56, 305-14). As a positive control, a selective inhibitor for each CYP450 isoform is tested in the same plate.

CYP2C9 = CYP2C9 (Homo sapiens (Human), UniProt P11712); assay: as above; assay type: in vitro ADME
Sequence of CYP2C9 (P11712 whole entry): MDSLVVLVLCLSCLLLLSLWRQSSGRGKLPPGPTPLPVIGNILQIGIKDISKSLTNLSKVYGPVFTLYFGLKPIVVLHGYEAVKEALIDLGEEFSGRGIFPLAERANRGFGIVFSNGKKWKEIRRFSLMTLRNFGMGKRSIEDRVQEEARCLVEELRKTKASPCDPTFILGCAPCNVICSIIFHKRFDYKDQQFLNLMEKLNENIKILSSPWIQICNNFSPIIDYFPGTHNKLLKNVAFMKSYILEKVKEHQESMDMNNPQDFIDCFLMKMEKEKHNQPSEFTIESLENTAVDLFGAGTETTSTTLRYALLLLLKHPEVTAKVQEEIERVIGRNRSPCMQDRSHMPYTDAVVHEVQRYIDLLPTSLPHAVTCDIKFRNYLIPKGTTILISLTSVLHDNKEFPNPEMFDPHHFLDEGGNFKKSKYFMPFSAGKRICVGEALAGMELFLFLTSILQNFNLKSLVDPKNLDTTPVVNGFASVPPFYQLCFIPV
Protocol: as §2, §3

CYP3A4 = CYP3A4 (Homo sapiens (Human), UniProt P08684); assay: as above; assay type: in vitro ADME
Sequence of CYP3A4 (P08684 whole entry): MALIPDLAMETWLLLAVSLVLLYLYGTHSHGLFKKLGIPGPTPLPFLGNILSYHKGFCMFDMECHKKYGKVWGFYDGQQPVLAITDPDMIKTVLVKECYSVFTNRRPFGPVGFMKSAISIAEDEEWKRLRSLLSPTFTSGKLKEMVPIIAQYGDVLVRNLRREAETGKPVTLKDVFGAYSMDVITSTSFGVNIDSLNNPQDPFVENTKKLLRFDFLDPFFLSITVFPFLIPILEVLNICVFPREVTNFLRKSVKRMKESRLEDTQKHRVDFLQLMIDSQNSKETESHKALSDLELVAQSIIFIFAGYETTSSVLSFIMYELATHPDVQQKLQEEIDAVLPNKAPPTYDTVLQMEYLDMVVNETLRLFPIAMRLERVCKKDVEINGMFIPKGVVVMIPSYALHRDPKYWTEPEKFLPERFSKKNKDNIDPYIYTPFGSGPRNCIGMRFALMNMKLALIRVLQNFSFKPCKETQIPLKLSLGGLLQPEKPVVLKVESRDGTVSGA
Protocol: as §2, §3

CYP2C19 = CYP2C19 (Homo sapiens (Human), UniProt P33261); assay: as above; assay type: in vitro ADME
Sequence of CYP2C19 (P33261 whole entry): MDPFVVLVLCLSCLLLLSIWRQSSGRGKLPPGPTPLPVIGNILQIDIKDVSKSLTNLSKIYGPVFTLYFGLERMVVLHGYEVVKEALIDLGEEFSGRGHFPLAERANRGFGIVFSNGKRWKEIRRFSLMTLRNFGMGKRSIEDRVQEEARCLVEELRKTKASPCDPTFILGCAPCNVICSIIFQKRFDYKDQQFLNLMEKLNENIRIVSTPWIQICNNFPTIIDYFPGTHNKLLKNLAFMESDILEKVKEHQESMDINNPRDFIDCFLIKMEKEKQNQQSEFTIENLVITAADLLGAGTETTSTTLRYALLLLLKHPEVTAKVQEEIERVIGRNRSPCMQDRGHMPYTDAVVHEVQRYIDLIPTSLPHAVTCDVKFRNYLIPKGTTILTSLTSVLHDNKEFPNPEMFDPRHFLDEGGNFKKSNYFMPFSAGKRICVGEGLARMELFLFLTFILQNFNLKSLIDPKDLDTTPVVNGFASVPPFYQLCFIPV
Protocol: as §2, §3

CYP2D6 = CYP2D6 (Homo sapiens (Human), UniProt P10635); assay: as above; assay type: in vitro ADME
Sequence of CYP2D6 (P10635 whole entry): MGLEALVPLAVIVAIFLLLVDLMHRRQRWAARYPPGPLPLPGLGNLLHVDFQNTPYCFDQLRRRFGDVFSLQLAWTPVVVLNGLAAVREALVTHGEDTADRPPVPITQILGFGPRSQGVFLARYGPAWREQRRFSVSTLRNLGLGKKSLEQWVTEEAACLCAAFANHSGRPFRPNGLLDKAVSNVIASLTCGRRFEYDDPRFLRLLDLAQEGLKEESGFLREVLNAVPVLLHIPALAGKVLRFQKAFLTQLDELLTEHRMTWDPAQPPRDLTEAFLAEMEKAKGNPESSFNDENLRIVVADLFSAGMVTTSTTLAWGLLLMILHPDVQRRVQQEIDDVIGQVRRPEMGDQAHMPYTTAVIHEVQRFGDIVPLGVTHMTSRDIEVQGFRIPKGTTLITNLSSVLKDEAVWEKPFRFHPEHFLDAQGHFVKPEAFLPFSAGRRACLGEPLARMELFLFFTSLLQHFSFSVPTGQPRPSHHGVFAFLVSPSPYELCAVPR
Protocol: as §2, §3

CYP1A2 = CYP1A2 (Homo sapiens (Human), UniProt P05177); assay: as above; assay type: in vitro ADME
Protocol: as §2, §3

[6] = tested on: FXR target genes: BSEP, SHP, OSTβ and CYP7A1; assay: FXR target gene panel, quantitative RT-PCR in HepG2 cells; assay type: cell-based; settings: stimulation for 18 hours
Protocol: To evaluate the capacity of a compound of the invention to modulate FXR target genes, quantitative RT-PCR assays are performed. HepG2 cells are selected as a relevant cell line to determine whether a compound of the invention can regulate the endogenous FXR genetic network. The ability of a compound of the invention to induce FXR target genes is assessed by isolating total RNA from cells treated overnight with 1 μM of compounds A, B, and a compound of the invention.
FXR regulates the expression of several target genes involved in BA homeostasis. Briefly, FXR plays a central role in several metabolic pathways, including i.e., lipid metabolism, bile-acids metabolism, and carbohydrate metabolism. Regarding gene expression profiling, the genes encoding proteins involved in lipid metabolism include, e.g., APOCII, APOE, APOAI, SREBP-1C, VLDL-R, PLTP, and LPL; the genes encoding proteins involved in bile-acids metabolism include, e.g., OSTα/β, BSEP, MRP2, SHP, CYP7A1, FGF19, SULT2A1, and UGT2B4; and the genes encoding proteins involved in carbohydrate metabolism include, e.g., PGCla, PEPCK, and GLUT2. FXR target genes: BSEP, SHP, OSTβ and CYP7A1 were evaluated following stimulation of Compounds 3, 5, 6, and 7 on HepG2 cells for 18 hours. Compound L1 was used as a control.

[7] = read-out: CYP3A4 (Green substrate) IC50, Green substrate

T1 sequence (Q8TDU6 whole entry): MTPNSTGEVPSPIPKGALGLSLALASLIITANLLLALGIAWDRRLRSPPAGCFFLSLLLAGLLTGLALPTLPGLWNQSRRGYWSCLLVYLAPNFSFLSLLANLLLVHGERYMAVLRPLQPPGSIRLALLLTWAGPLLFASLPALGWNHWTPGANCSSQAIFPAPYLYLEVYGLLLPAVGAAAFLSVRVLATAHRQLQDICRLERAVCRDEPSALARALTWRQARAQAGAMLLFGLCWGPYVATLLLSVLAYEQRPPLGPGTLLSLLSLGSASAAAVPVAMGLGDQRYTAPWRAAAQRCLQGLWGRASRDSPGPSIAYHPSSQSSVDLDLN

Compound: 6α-ethyl-3α,7α,23-trihydroxy-24-nor-5β-cholan-23-sulphate sodium salt [Compound B, reference compound]
- EC50 (hTGR5 [1]): 0.63 µM

Compound: CC[C@H]1[C@@H](O)C2C3CCC(C(C)CC(C)C(=O)O)[C@@]3(C)[C@@H](O)CC2[C@@]2(C)CC[C@@H](O)C[C@@H]12 (stereo in doubt) [Compound C, 6α-ethyl-23(S)-methyl-3α,7α,12α trihydroxy-5β-cholan-24-oic acid, reference compound]
- CMC: Critical Micellar Concentration [2]: 2 mM
- LogPA−: 1-octanol-water partition coefficient as ionized species [3]: 1.4

Compound: CC[C@H]1[C@@H](O)C2C3CC[C@H]([C@H](C)CC(=O)O)[C@@]3(C)C[C@H](O)C2[C@@]2(C)CC[C@@H](O)C[C@@H]12 (stereo partly drawn) [Compound 1, 3α,7α,11β-trihydroxy-6α-ethyl-24-nor-5β-cholan-23-oic acid]
- EC50 (hTGR5 [1]): > 100 µM

Compound: CC[C@H]1[C@@H](O)C2C3CC[C@H]([C@H](C)CCO)[C@@]3(C)C[C@H](O)C2[C@@]2(C)CC[C@@H](O)C[C@@H]12 (stereo partly drawn) [Compound 2, 3α,7α,11β-trihydroxy-6α-ethyl-24-nor-5β-cholan-23-ol]
- EC50 (hTGR5 [1]): 93 µM

Compound: CC[C@H]1[C@@H](O)C2C3CC[C@H]([C@H](C)CCOS(=O)(=O)[O-])[C@@]3(C)C[C@H](O)C2[C@@]2(C)CC[C@@H](O)C[C@@H]12.[Na+] (stereo partly drawn) [Compound 3, 3α,7α,11β,23-tetrahydroxy-6α-ethyl-24-nor-5β-cholan-23-O-sulphate sodium salt]
- IC50 (hERG potassium channel): > 100 µM
- hERG potassium channel inhibition (in words) (hERG potassium channel): Compounds L1, 3, 5, 6 and 7 did not inhibit hERG potassium channel.
- EC50 (hTGR5 [4]): 5 ± 1 µM
- CMC: Critical Micellar Concentration [2]: 12.5 mM
- rTGR5 CHO EC50 (rTGR5): No activity
- Activation of nuclear receptor panel, agonist mode [5]: Neither compound activated any of the receptors
- Activity on nuclear receptor panel, antagonist mode [5]: Neither compound activated any of the receptors
- EC50 (mTGR5): 3 ± 0.5 µM
- dTGR5 CHO EC50 (dTGR5): No activity
- LogPA−: 1-octanol-water partition coefficient as ionized species [3]: 0.12
- ATP Content EC50 (HepG2 cells): No toxicity
- IC50 (CYP2E1): > 10 µM
- IC50 (CYP2C9): > 10 µM
- IC50 (CYP3A4): > 10 µM
- IC50 (CYP3A4; [7]): > 10 µM
- IC50 (CYP2C19): > 10 µM
- IC50 (CYP2D6): > 10 µM
- IC50 (CYP1A2): > 10 µM
- Modulation of FXR target genes BSEP, SHP, OSTβ and CYP7A1 [6]: significantly bind to FXR in hepatic cells modulating FXR target genes
- EC50 (hTGR5 [1]): 83 ± 7 µM

Compound: CC[C@H]1[C@@H](O)[C@@H]2[C@H]([C@@H](O)C[C@]3(C)[C@@H]([C@H](C)CCCO)CC[C@@H]23)[C@@]2(C)CC[C@@H](O)C[C@@H]12 [Compound 4, 3α,7α,11β-trihydroxy-6α-ethyl-5β-cholan-24-ol]
- EC50 (hTGR5 [1]): 13.7 ± 2.3 µM

Compound: CC[C@H]1[C@@H](O)C2C3CC[C@H]([C@H](C)CCCOS(=O)(=O)[O-])[C@@]3(C)C[C@H](O)C2[C@@]2(C)CC[C@@H](O)C[C@@H]12.[Na+] (stereo partly drawn) [Compound 5, 3α,7α,11β-Trihydroxy-6α-ethyl-5β-cholan-24-O-sulphate, sodium salt]
- IC50 (hERG potassium channel): > 100 µM
- hERG potassium channel inhibition (in words) (hERG potassium channel): Compounds L1, 3, 5, 6 and 7 did not inhibit hERG potassium channel.
- EC50 (hTGR5 [4]): 3 ± 1 µM
- CMC: Critical Micellar Concentration [2]: 8.5 mM
- rTGR5 CHO EC50 (rTGR5): No activity
- Activation of nuclear receptor panel, agonist mode [5]: Neither compound activated any of the receptors
- Activity on nuclear receptor panel, antagonist mode [5]: Neither compound activated any of the receptors
- EC50 (mTGR5): 4 ± 1 µM
- dTGR5 CHO EC50 (dTGR5): No activity
- LogPA−: 1-octanol-water partition coefficient as ionized species [3]: 0.61
- ATP Content EC50 (HepG2 cells): No toxicity
- IC50 (CYP2E1): > 10 µM
- IC50 (CYP2C9): > 10 µM
- IC50 (CYP3A4): > 10 µM
- IC50 (CYP3A4; [7]): > 10 µM
- IC50 (CYP2C19): > 10 µM
- IC50 (CYP2D6): > 10 µM
- IC50 (CYP1A2): > 10 µM
- Modulation of FXR target genes BSEP, SHP, OSTβ and CYP7A1 [6]: significantly bind to FXR in hepatic cells modulating FXR target genes
- EC50 (hTGR5 [1]): 78 ± 1 µM

- CMC: Critical Micellar Concentration [2]: 2.9 mM
- LogPA−: 1-octanol-water partition coefficient as ionized species [3]: 2.5
Compound: CC[C@H]1[C@@H](O)[C@@H]2[C@H](CC[C@]3(C)[C@@H]([C@H](C)CCC(=O)O)CC[C@@H]23)[C@@]2(C)CC[C@@H](O)C[C@@H]12 [Compound A, 6α-ethyl-3α,7α-dihydroxy-5β-cholan-24-oic acid, reference compound]

Compound: CC[C@H]1[C@@H](O)C2C3CC[C@H]([C@H](C)C[C@H](C)C(=O)O)[C@@]3(C)CCC2[C@@]2(C)CC[C@@H](O)C[C@@H]12 (stereo partly drawn) [Compound D, 6α-ethyl-23(R)-methyl chenodeoxycholic acid]
- LogPA−: 1-octanol-water partition coefficient as ionized species [3]: 2.9

Compound: CC[C@H]1[C@@H](O)C2C3C[C@H](O)[C@H]([C@H](C)CCC(=O)O)[C@@]3(C)CCC2[C@@]2(C)CC[C@@H](O)C[C@@H]12 (stereo partly drawn) [Compound E, reference compound]
- CMC: Critical Micellar Concentration [2]: 5.9 mM
- LogPA−: 1-octanol-water partition coefficient as ionized species [3]: 1.6
